We go through 98 compounds from ChEMBL document CHEMBL3507680, “University of Dundee, Gates Library screen for HepG2 cell viability”.

A short description of the series: Human HepG2 cell viability assay in 384 well format. It counts as toxicity, cell-based. Further details: dose 125 nL, time 70.5 hour; concentration not given beside the values. To be noted: HepG2 cells, read-out: Inhibition.
Take `Cc1ccc(CN2CC[C@H]3[C@H]2CCN3S(C)(=O)=O)s1`: the cytotoxicity at 70.5 h is -6.63%.
In the case of `O=C(NCCOCCO)c1cnc(-c2ccccc2)nc1O` it was -7.84%; in that of `CN(C)Cc1nn(C)c2c1CN(C(=O)Nc1ccc(F)cc1)C2`, -3.55%; in that of `CCN(CC)C(=O)C1CCC2(CCNCC2)O1` (stereo not drawn), -12.5%.
For `O=c1n(CCNCc2cccc3ccccc23)nc2ccccn12`, the cytotoxicity at 70.5 h was -12.6%.
In the case of `O=C(Cn1ccc2cc(Br)ccc21)NC[C@@H]1CCCN2CCCC[C@H]12` it was 9.59%.
With `CS(=O)(=O)N[C@H]1CN(C(=O)CCc2ccco2)C[C@@H]1C1CC1`, the cytotoxicity at 70.5 h was 19.3%.
Regarding `COc1ccc(CNC(=O)NC2CCN(CC(F)F)CC2)cc1C`, the cytotoxicity at 70.5 h was -7.09%.
As to `COCCO[C@H]1CCN(C(=O)c2cccnc2)[C@H]1Cc1cnn(C)c1`, the cytotoxicity at 70.5 h is -96.2%.
Under `Cc1nn(CC(=O)N2CCN(c3ccccc3F)CC2)c(C)c1Cl` stands -2.28%; under `O=C(Nc1cccnc1)N1CCC(n2ccc(C(F)(F)F)n2)CC1`, -3.71%; under `O=C(O)c1ccc2[nH]cc(CN3CCOCC3)c2c1`, 2.68%.
Under `CCC(=O)N1CCC(Cc2ccccc2-c2ccccc2F)(C(N)=O)C1` (stereo not drawn) stands -8.54%.
In the case of `Cc1nc(CN2CCC3(CCCO3)CCC2=O)no1` (stereo not drawn) it was -3.41%; in that of `CCc1nc(N2CCCC(CO)(CCOC)C2)ncc1C` (stereo not drawn), -7.73%.
Turning to `COC(=O)c1ccc(S(=O)(=O)N2CCC(Oc3cccnn3)CC2)cc1`, the cytotoxicity at 70.5 h is -8.01%.
With `CC(=O)N1C[C@@H]2CN(Cc3cccnc3)CCO[C@@H]2C1`, the cytotoxicity at 70.5 h was -11.3%.
With `Cc1nc(CN2C[C@@H]3CCCO[C@@H]3[C@H](NC(=O)CC3CC3)C2)cs1`, the cytotoxicity at 70.5 h is -0.515%.
For `CCCC(=O)N1Cc2ccccc2CC2(CCN(C)C2)C1` (stereo not drawn), the cytotoxicity at 70.5 h amounted to 22.5%.
Consider `CCc1csc(CNC2CCN(Cc3ccccc3)C2)n1` (stereo not drawn), for which the cytotoxicity at 70.5 h is -8.44%.
Under `CN(C)c1ncc(CNC(=O)Nc2ccccc2C(F)(F)F)n1C` stands 18.7%; under `Cc1cc(C)c(CNC(=O)NCC(O)c2ccccc2F)c(=O)[nH]1` (stereo not drawn), -2.12%.
Regarding `CC(C)(C)c1cc(=O)[nH]c(C2(N)CCCCC2)n1`, the cytotoxicity at 70.5 h is -4.98%.
As to `Cc1nnc(C(NS(=O)(=O)c2cc(C)c(F)cc2F)C(C)C)[nH]1` (stereo not drawn), the cytotoxicity at 70.5 h was -6.79%.
In the case of `Cc1nc(C(=O)N2CCCCC2c2ccc(CN(C)C)cc2)c(C)o1` (stereo not drawn) it was -4.13%; in that of `CC(C)(C)c1n[nH]cc1CN1CCc2nc3ccsc3c(=O)n2CC1`, 12.1%.
With `COc1ccc(CC(C)Nc2cccc(F)c2)cc1` (stereo not drawn), the cytotoxicity at 70.5 h was -1.11%.
Under `COCCCNC(=O)c1cc(-c2ccc(OC)cc2)nn1C` stands 4.27%; under `CC(C)(C)[S+]([O-])CCNC(=O)c1cccc2ncccc12` (stereo not drawn), -8.58%.
In the case of `Cc1cc(CN2CC[C@H]3C(=O)N(c4ccsc4)CCO[C@H]3C2)no1` it was -9.15%.
For the compound `CC(=O)N1N=C(c2cccs2)OC1C(=O)Nc1ccc(C)cc1` (stereo not drawn), the cytotoxicity at 70.5 h stood at 1.28%.
With `Cc1ccc2c(c1)CCCN2C(=O)c1cncc(Br)c1`, the cytotoxicity at 70.5 h was determined as 20.3%.
With `CCOc1ccc(CNC(C)c2c(C)nn(C)c2C)cc1` (stereo not drawn), the cytotoxicity at 70.5 h was determined as 20.4%.
As to `O=C1NC[C@@]2(C(=O)O)CN(Cc3cccc(OC4CCCC4)c3)C[C@@H]12`, the cytotoxicity at 70.5 h was -3%.
In the case of `COCCO[C@H]1CCN(c2cc(OC)ncn2)[C@H]1Cc1cccnc1` it was 7.05%; in that of `COC(=O)CCC(=O)N1CCC2(CN(Cc3ccccc3F)C2)C1`, -7.6%.
For the compound `COc1nc2c(cc1C(=O)NC(C)Cc1cnccn1)CCC2` (stereo not drawn), the cytotoxicity at 70.5 h was -7.71%.
Under `NC(=O)CCSc1ccccc1NCc1ccc(Cl)s1` stands -95%; under `COCCN(C)C[C@@H]1CN(c2nc(C)cc(C)n2)C[C@@H]1CO`, 1.4%; under `O=S1(=O)NC(c2ccnc(N3CCCCC3)n2)=Nc2ccccc21`, 7.4%.
`CNc1cc(C)nc(N2CCC3(CC2)[C@H](O)C[C@@H]3O)n1`: the cytotoxicity at 70.5 h was -6.92%.
In the case of `O=S(=O)(NC1CC1)c1cccc(Br)c1`, the cytotoxicity at 70.5 h stood at 3.01%.
Under `COc1cccc(OCC2CCCN(C(=O)c3ccc(N)nc3)C2)c1` (stereo not drawn) stands -11.6%.
In the case of `CC(C)C(=O)NCc1ccc(N2CCCC2)nc1` it was -3.37%; in that of `C[C@H](CCO)NS(=O)(=O)c1ccc(Br)cn1`, -6.95%.
Under `CC(Cc1ccco1)NC(=O)C1=NN(c2ccccc2)C(=O)CC1` (stereo not drawn) stands 16.9%; under `CC(C)N(C)Cc1nnc2n1CCCN(c1ncccn1)C2`, -2.54%.
As for `O=C(c1ccnnc1)N1CCC2(CCN(c3ccsc3)C2=O)C1` (stereo not drawn), the cytotoxicity at 70.5 h was -0.84%.
Under `O=C(c1ccco1)N1CCO[C@@H]2CNCC[C@@H]2C1` stands 32.1%; under `CN(C)[C@H]1CCCCN(Cc2ccccc2Cn2cccn2)C1`, 2.32%.
Consider `COCC1c2nnn(C)c2CCN1C(=O)COc1ccccc1OC` (stereo not drawn), for which the cytotoxicity at 70.5 h worked out at 1.52%.
Under `CCOc1cccc(CSC(C)c2nc(C)no2)n1` (stereo not drawn) stands -3.8%; under `COc1cc(C)nc(N2CCN(C(=O)c3ccn(C)c(=O)c3)CC2)n1`, -0.122%; under `CN(C)CC(C)(C)CN1CCC(c2ccnc(-c3cccc(O)c3)c2)C1` (stereo not drawn), -8.34%.
Under `COc1ccc2nc(CNC(=O)c3cc(C(C)C)no3)[nH]c2c1` stands 39.1%; under `N#CCCN(CC(F)(F)F)C(=O)c1cc(-n2cccn2)ccn1`, -3.35%; under `CCCc1nnc2sc(CC3CN(Cc4ccccc4)CCO3)nn12` (stereo not drawn), -8.68%.
On to `Cc1cc(C)c(CNc2ncnc3ccsc23)c(=O)[nH]1`, for which the cytotoxicity at 70.5 h was -9.82%.
In the case of `COC(=O)CNCC1(O)CCCN(Cc2cccc(F)c2F)C1=O` (stereo not drawn) it was -0.438%; in that of `CC(C)[C@H]1CN(c2cnccn2)C[C@@H]1NC(=O)C1(C#N)CCOCC1`, -6.21%; in that of `Cc1cn[nH]c1C1COCCN1C(=O)c1cc(F)ccc1F` (stereo not drawn), 5.9%.
Turning to `CC(C)C(=O)N1CCC2(CC1)NC(=O)[C@H]1CN(C(=O)N(C)C)C[C@H]12`, the cytotoxicity at 70.5 h is -11.8%.
On to `Brc1ccc(NCc2ccc(Cn3ccnc3)cc2)nc1`, for which the cytotoxicity at 70.5 h worked out at 43.7%.
For the compound `CC(C)CNC(=O)N1C[C@@H]2CCCN[C@@H]2C1`, the cytotoxicity at 70.5 h was -8.84%.
As for `CCCc1c(C(=O)N2CCN(c3cnccn3)CC2)cnn1C`, the cytotoxicity at 70.5 h was -14.4%.
For the compound `Cc1ccccc1CN1CCN(c2ncnc3c2NC(=O)CN3)CC1`, the cytotoxicity at 70.5 h was -8.36%.
In the case of `Cc1nnc2n1CCN(C(=O)C1CCN(Cc3ccccc3)CC1)C2`, the cytotoxicity at 70.5 h is 14.2%.
Under `COC(=O)c1sccc1NC(=O)C1CCCN1C(=O)c1ccco1` (stereo not drawn) stands 16.3%.
In the case of `CCc1noc(CNCC2CCCN2c2cccnn2)n1` (stereo not drawn) it was 1.91%; in that of `Cc1cnc(CNc2ncc(C)c(-c3cnn(C)c3)n2)cn1`, -14.1%; in that of `CC1CN(C)CCN1Cc1cccc(C(=O)N(C)C)c1` (stereo not drawn), 33.2%.
In the case of `CC(c1cccnc1)N(C)Cc1cc2cc3c(cc2[nH]c1=O)OCO3` (stereo not drawn) it was 2.59%.
Turning to `CCOc1ccc(CC(=O)N(CCC(=O)OC)CC2CCCO2)cc1` (stereo not drawn), the cytotoxicity at 70.5 h was -14.3%.
With `Cn1cc(CN2CCN(Cc3nccn3C)CC2)cn1`, the cytotoxicity at 70.5 h is 29.1%.
With `CCOCC(=O)NC1(c2cccc(Br)c2)CC1`, the cytotoxicity at 70.5 h is 13.9%.
For `CCCn1nc2c(cc1=O)CN(Cc1nc(C)c3ccccc3n1)CC2`, the cytotoxicity at 70.5 h was -7.04%.
Regarding `CC(C)N(CC1CCCN(CC(N)=O)C1)C(=O)OC(C)(C)C` (stereo not drawn), the cytotoxicity at 70.5 h is -12.8%.
With `Cc1nc(CC(=O)N2CCCC2c2nc(C(C)C)no2)cs1` (stereo not drawn), the cytotoxicity at 70.5 h is -6.42%.
Under `CCC(Nc1ccc(CCN2CCCCC2)cc1)C(N)=O` (stereo not drawn) stands -8.14%; under `CCC1=N[C@@]2(CC[C@@H]3CN(CC4CC4)C[C@@H]32)C(=O)N1C`, -14.1%.
With `Cc1nnc(CCNC(=O)[C@H]2CNC[C@@H](C(=O)N3CCCC3)C2)s1`, the cytotoxicity at 70.5 h is -6.7%.
Under `Cc1ccc(N2C(=O)N[C@@H]3CCN(C(=O)C4CC4)[C@@H]3C2=O)cc1` stands -15.3%.
On to `COCCCNC(=O)Cn1c(C)cc(=O)n2nc(-c3cccs3)nc12`, for which the cytotoxicity at 70.5 h is -7.89%.
In the case of `CCN(CC(C)C#N)C(=O)c1cccc(COc2ccc(C)nc2)c1` (stereo not drawn) it was -4.47%; in that of `CN1CCN(C2CCN(Cc3cn4ccccc4n3)CC2)C1=O`, 19.5%; in that of `Cc1cc(NCC(=O)NCC(F)(F)F)nc(-c2ccncc2)n1`, -8.33%.
Under `Cc1cccc(CCC(=O)Nc2cccnc2N2CCC(O)CC2)c1` stands 1%; under `COc1coc(CN2CCCC(CCc3ccccc3F)C2)cc1=O` (stereo not drawn), 16.9%; under `COc1ccc(CN2C[C@@H](O)[C@](O)(CNC(=O)c3ccccn3)C2)cc1`, -7.06%.
Under `O=C(Cc1ccc(Br)cc1)N1CC(S(=O)(=O)C2CCCCC2)C1` stands -4.51%.
In the case of `Cc1cnc(C)c(N2CCCC(CO)(Cc3ccccc3C)C2)n1` (stereo not drawn), the cytotoxicity at 70.5 h was determined as 11.4%.
With `COCc1cc(CC2(NCc3ccccc3Cl)COC2)no1`, the cytotoxicity at 70.5 h is -3.62%.
For the compound `CCOc1ccc(N2CCCN=C2NC(=O)c2cccc(Cl)c2)cc1`, the cytotoxicity at 70.5 h was -9.1%.
In the case of `Cc1cc(C)n(NC(=O)c2ccccc2F)c(=O)c1` it was 15.6%; in that of `Cc1ccc(C(=O)NCCCN(C)S(C)(=O)=O)c(=O)[nH]1`, -5.2%.
For `CCn1nc2c(cc1=O)CN(Cc1nc(-c3cccnc3)no1)CC2`, the cytotoxicity at 70.5 h was -14.4%.
As for `O=C1CCCCN1CC(=O)N1CCCC(c2ccccc2)C1` (stereo not drawn), the cytotoxicity at 70.5 h was -20.6%.
Take `Cc1nn(C)c(C)c1CC(=O)NCc1cccnc1OC1CCCC1`: the cytotoxicity at 70.5 h is -3.95%.
